Measured values from patent US8389573B2, “Glycyrrhetinic acid derivatives” (Wellington Laboratories Inc., priority 2006, dated 2013).

Columns and labels:
[1] = system: Sp1, Sp3 and Sp4 in liver; assay: Sp protein expression in non-target tissue (liver) of treated mice; assay type: in vivo; conditions: preliminary results
From the text: (i) Animal treatment: Male athymic nude mice are obtained from commercial sources and their use approved by the Institutional Animal Care and Use Committee. Ten animals are used for each treatment group and based on consultation with biostatisticians, this number is sufficient for determining statistical significance between treatment groups (41, 42). At least one AR-positive (LNCaP/22Rv1) and AR-negative (PC3/DU145) prostate cancer cell line is used in the xenograft study. Cells are harvested by exposure to trypsin and resuspended in serum-free Hanks' balanced salt solution (HBSS). […] In addition, Western blot analysis of Sp proteins, proapoptotic and antiangiogenic responses is determined on whole cell lysates from compound- and corn oil (vehicle)-treated tumors. Where possible (depending on the amount of protein extracted), the effects of the compound versus corn oil on expression of these proteins is quantitated and statistically analyzed. In addition, the effects of the compound on Sp protein expression in non-target tissue (e.g. liver and kidney) is determined. […] Immunostaining for Sp1, Sp3 and Sp4 and for angiogenic (VEGF, VEGFR1 and VEGFR2) and apoptotic (cleaved PARP, activated caspase 3, survivin and TUNEL) proteins/responses are determined as described above.

[2] = system: Sp protein levels in RKO cells; assay: Sp protein expression (gel) in RKO cells; assay type: cell-based
PPARγ = molecular target: T1, PPARγ (Homo sapiens, UniProt P37231); assay: PPRE3-Luc transfection and luciferase assay in SW480 cells; assay type: cell-based
T1 construct: endogenous in cells; host or cells: SW480 colon cancer cells
T1 sequence (P37231 1-505): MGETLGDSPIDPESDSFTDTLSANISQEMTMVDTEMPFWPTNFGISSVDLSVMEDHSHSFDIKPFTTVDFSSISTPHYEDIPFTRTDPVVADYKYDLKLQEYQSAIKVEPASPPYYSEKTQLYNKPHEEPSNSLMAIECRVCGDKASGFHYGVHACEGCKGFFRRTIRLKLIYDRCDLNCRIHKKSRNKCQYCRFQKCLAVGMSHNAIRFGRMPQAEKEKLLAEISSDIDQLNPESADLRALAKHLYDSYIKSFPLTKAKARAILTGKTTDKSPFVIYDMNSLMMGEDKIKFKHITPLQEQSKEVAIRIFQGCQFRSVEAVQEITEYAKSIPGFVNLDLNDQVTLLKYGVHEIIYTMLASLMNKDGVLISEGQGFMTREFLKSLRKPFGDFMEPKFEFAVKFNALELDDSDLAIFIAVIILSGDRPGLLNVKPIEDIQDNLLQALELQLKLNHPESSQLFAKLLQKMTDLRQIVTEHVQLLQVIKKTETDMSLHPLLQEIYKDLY
Description: The Gal4 reporter containing 5× Gal4 response elements (pGal4) was kindly provided by Dr. Marty Mayo (University of North Carolina, Chapel Hill, N.C.). Gal4 DBD-PPARγ construct (gPPARγ) was a gift of Dr. Jennifer L. Oberfield (GlaxoSmithKline Research and Development, Research Triangle Park, N.C.). PPRE3-luc construct contains three tandem PPREs with a minimal TATA sequence in pGL2.
Colon Cancer cell lines SW480 and HT29 (1×10^5 cells/well) were plated in 12-well plates in DMEM/Ham's F-12 media supplemented with 2.5% charcoal-stripped FBS. After 16 h, various amounts of DNA [i.e., Gal4Luc (0.4 μg), β-Gal (0.04 μg), Gal4PPAR and PPRE3-Luc (0.04 μg)] were transfected using LipofectAMINE™ reagent (Invitrogen) following the manufacturer's protocol. Five hours after transfection, the transfection mix was replaced with complete media containing either vehicle (DMSO) or the indicated ligand for 20 to 22 h. Cells were then lysed with 100 μl of 1× reporter lysis buffer, and 30 μl of cell extract was used for luciferase and […] assays. A LumiCount™ luminometer (PerkinElmer Life and Analytical Sciences) was used to quantitate luciferase and β-Gal activities, and the luciferase activities were normalized to β-Gal activity. Results are expressed as means±S.E. for at least three replicate determinations for each treatment group

COC(=O)[C@@]1(C)CC[C@]2(C)CC[C@]3(C)C(=CC(=O)[C@@H]4[C@@]5(C)C=C(C#N)C(=O)C(C)(C)[C@@H]5CC[C@]43C)[C@@H]2C1 [β-CDODA-Me, Methyl 2-cyano-3,11-dioxo-18β-oleana-1,12-dien-30-oate]
Sp1, Sp3 and Sp4 expression in liver [1]: unaffected | Sp protein expression [2]: decreases Sp protein expression | VEGF protein expression [2]: decreased VEGF protein expression | decrease of Sp protein expression with T007 or proteasome inhibitors [2]: not reversed | transactivation of PPRE3-Luc (PPARγ): induced transactivation | PPRE3-Luc transactivation after cotreatment with PPARγ antagonists T007 and GW9662 (PPARγ; 10 μM antagonist): inhibited
